Measurements taken from the supplement of paper PMC8960247.
Structures can show the parent of a compound that is named as a salt. ± gives the standard error.

Tests used:
621-102 (TSC2-deficient) = test: relative viability vs DMSO; higher = less cytotoxic; conditions: serum: 10% FBS, 72 h
621-103 (TSC2-rescued) = test: as above; conditions: serum: 10% FBS, 72 h
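Note: immortalized renal angiomyolipoma cells stably carrying empty vector or TSC2, dosed in 384-well plates in DMEM, viability normalized to vehicle-treated wells within each plate.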

Row | Structure (SMILES) | relative viability (621-102 (TSC2-deficient); 0.0001 µM) [%] | relative viability (621-102 (TSC2-deficient); 0.001 µM) [%] | relative viability (621-102 (TSC2-deficient); 0.01 µM) [%] | relative viability (621-102 (TSC2-deficient); 0.1 µM) [%] | relative viability (621-102 (TSC2-deficient); 1 µM) [%] | relative viability (621-102 (TSC2-deficient); 10 µM) [%] | relative viability (621-103 (TSC2-rescued); 0.0001 µM) [%] | relative viability (621-103 (TSC2-rescued); 0.001 µM) [%] | relative viability (621-103 (TSC2-rescued); 0.01 µM) [%] | relative viability (621-103 (TSC2-rescued); 0.1 µM) [%] | relative viability (621-103 (TSC2-rescued); 1 µM) [%] | relative viability (621-103 (TSC2-rescued); 10 µM) [%]
1 | Nc1ccccc1NC(=O)c1ccc(CNc2nccc(-c3cccnc3)n2)cc1 [MGCD0103 (Mocetinostat)] | 102.2 ± 1 | 100.9 ± 0.78 | 93.91 ± 0.76 | 83.5 ± 1.2 | 82.8 ± 1.6 | 34.1 ± 1.1 | 99.5 ± 1.3 | 102 ± 1.1 | 105.6 ± 0.9 | 93.1 ± 2.1 | 68.6 ± 0.98 | 18.5 ± 0.42
2 | NC(=O)c1ccc(-c2nc(-c3ccccn3)c(-c3ccc4c(c3)OCO4)[nH]2)cc1 | 111 ± 2.5 | 116 ± 1.5 | 114.2 ± 0.63 | 117 ± 3.9 | 112.6 ± 1 | 106.7 ± 0.3 | 102 ± 3.6 | 108.5 ± 0.46 | 111 ± 4.9 | 98.44 ± 0.36 | 98.1 ± 1.6 | 94.07 ± 0.91
3 | COc1cc2/c(=N/c3ccc(Br)cc3F)nc[nH]c2cc1OCC1CCN(C)CC1 [Vandetanib] | 94.4 ± 4.3 | 101 ± 3.8 | 109 ± 3.6 | 115 ± 1.7 | 102 ± 1.1 | 33.9 ± 2.9 | 102 ± 2.5 | 99.63 ± 0.8 | 98.84 ± 0.35 | 97.74 ± 0.94 | 98.3 ± 0.93 | 11.4 ± 1.8
4 | CC1(C)CNc2cc(NC(=O)c3cccnc3NCc3ccncc3)ccc21 [Motesanib DiPhosphate] | 104 ± 1.8 | 119 ± 1.9 | 115.2 ± 1.1 | 110 ± 3 | 104 ± 2.7 | 107 ± 2 | 94.7 ± 3.1 | 102.6 ± 0.75 | 102.5 ± 0.75 | 102 ± 1.3 | 93 ± 1.9 | 98 ± 1.7
5 | CC[N+](CC)(CC)CCOc1cccc(OCC[N+](CC)(CC)CC)c1OCC[N+](CC)(CC)CC [Gallamine triethiodide (Flaxedil)] | 105 ± 2.9 | 109.1 ± 0.49 | 103 ± 3.5 | 102.6 ± 0.87 | 103.6 ± 0.17 | 89 ± 2 | 99.9 ± 4.2 | 87.2 ± 3 | 103 ± 1.7 | 92.4 ± 3.8 | 87.3 ± 1.9 | 99.6 ± 4.1
6 | CC[C@H]1OC(=O)[C@H](C)[C@@H](O[C@H]2C[C@@](C)(OC)[C@@H](O)[C@H](C)O2)[C@H](C)[C@@H](O[C@@H]2O[C@H](C)C[C@H](N(C)C)[C@H]2O)[C@](C)(OC)C[C@@H](C)C(=O)[C@H](C)[C@@H](O)[C@]1(C)O [Clarithromycin (Biaxin,Klacid)] | 118 ± 2 | 113 ± 2.8 | 108 ± 0.65 | 115 ± 2.5 | 105 ± 0.45 | 98.8 ± 1.5 | 106 ± 2 | 91.4 ± 2.9 | 104 ± 1.4 | 102 ± 1.1 | 102 ± 3.7 | 93.43 ± 0.4
7 | NC(=O)[C@@H](CCC(F)(F)F)N(Cc1ccc(-c2ncon2)cc1F)S(=O)(=O)c1ccc(Cl)cc1 | 109.7 ± 0.27 | 108 ± 2.7 | 124 ± 2.7 | 116.1 ± 0.31 | 117 ± 2.9 | 108 ± 2.9 | 103 ± 1.2 | 102 ± 1.3 | 101.6 ± 0.3 | 103.4 ± 0.95 | 103.76 ± 0.01 | 102 ± 1.9
8 | CC(C)NCC(O)c1ccc(O)c(O)c1 (stereo not drawn) [Isoprenaline HCl] | 103 ± 4.7 | 99.5 ± 2.4 | 102 ± 1.1 | 95.5 ± 4.2 | 94.6 ± 2.4 | 98.26 ± 0.6 | 95.6 ± 2 | 88 ± 5.3 | 91.5 ± 1.7 | 94.2 ± 6.9 | 91.3 ± 2.6 | 83.3 ± 1.6
9 | CN1CCN(c2ccc([N+](=O)[O-])c3no[n+]([O-])c23)CC1 | 102 ± 5.5 | 101.2 ± 1 | 105 ± 1.3 | 102 ± 1.3 | 103 ± 1.9 | 88.03 ± 0.45 | 75 ± 4.3 | 82.8 ± 4.1 | 87.4 ± 5.2 | 98.8 ± 1.6 | 96 ± 2.7 | 65.3 ± 5
